For the assay, the species on record is Gallus gallus. Nature of the assay: Antiangiogenic activity at chorioallantoic membrane of chick embryo at 5 nmol per egg. It is filed as functional, organism-based.
With `C[C@H]1[C@@H](CC[S+]([O-])CC[C@H]2O[C@@H]3O[C@]4(C)CC[C@H]5[C@H](C)CC[C@@H]([C@H]2C)[C@@]35OO4)O[C@@H]2O[C@@]3(C)CC[C@H]4[C@H](C)CC[C@@H]1[C@@]24OO3`, the Activity result is “Toxic”.
`C[C@@H]1CC[C@H]2[C@@H](CO)CO[C@@H]3O[C@]4(C)CC[C@@H]1[C@]32OO4` displayed an inhibition of 29%.
Regarding `C[C@H]1[C@@H](CCCOC(=O)CC(=O)OCCC[C@H]2O[C@@H]3O[C@]4(C)CC[C@H]5[C@H](C)CC[C@@H]([C@H]2C)[C@@]35OO4)O[C@@H]2O[C@]3(C)CC[C@H]4[C@H](C)CC[C@@H]1[C@@]24OO3`, the inhibition came out at 14%.
`C[C@H]1[C@@H](O)O[C@@H]2O[C@@]3(C)CC[C@H]4[C@H](C)CC[C@@H]1[C@@]24OO3` yielded an inhibition of 25%.
`C[C@H]1[C@@H](CCc2ccc(C(=O)O)cc2)O[C@@H]2O[C@]3(C)CC[C@H]4[C@H](C)CC[C@@H]1[C@@]24OO3` yielded an inhibition of 29%.
As to `O=C1CC[C@H](N2C(=O)c3ccccc3C2=O)C(=O)N1`, the inhibition was 50%.
For `C[C@@H]1CC[C@H]2[C@@H](COC[C@H]3CO[C@@H]4O[C@]5(C)CC[C@H]6[C@H](C)CC[C@@H]3[C@@]46OO5)CO[C@@H]3OC4(C)CC[C@@H]1[C@]32OO4` (single isomer, unassigned), the inhibition came to 71%.
On the same count and under the same terms, the same measure for `C[C@@H]1CC[C@H]2[C@H](CBr)CO[C@@H]3O[C@]4(C)CC[C@@H]1[C@]32OO4`: 75%; for `C[C@@H]1CC[C@H]2[C@@H](C(=O)O)CO[C@@H]3O[C@]4(C)CC[C@@H]1[C@]32OO4`: 20%.
As for `C[C@H]1[C@@H](CCS(=O)(=O)CC[C@H]2O[C@@H]3O[C@]4(C)CC[C@H]5[C@H](C)CC[C@@H]([C@H]2C)[C@@]35OO4)O[C@@H]2O[C@@]3(C)CC[C@H]4[C@H](C)CC[C@@H]1[C@@]24OO3`, the Activity entry was “Toxic”.
As to `CO[C@@H]1[C@H](OC(=O)/C=C/C=C/C=C/C=C/C(=O)O)CC[C@]2(CO2)[C@H]1[C@@]1(C)O[C@@H]1CC=C(C)C`, the inhibition came to 57%.
In the case of `C[C@H]1[C@@H](CCCC(=O)O)O[C@@H]2O[C@]3(C)CC[C@H]4[C@H](C)CC[C@@H]1[C@@]24OO3`, the inhibition was 50%.
With `C[C@@H]1CC[C@H]2[C@@H](C)C(=O)O[C@@H]3O[C@@]4(C)CC[C@@H]1[C@]32OO4`, the inhibition worked out at 25%.
As for `C=C1CO[C@@H]2O[C@]3(C)CC[C@H]4[C@H](C)CC[C@@H]1[C@@]24OO3`, the inhibition came out at 29%.
On the same count and under the same terms, the same measure for `C[C@H]1[C@@H](CCBr)O[C@@H]2O[C@]3(C)CC[C@H]4[C@H](C)CC[C@@H]1[C@@]24OO3`: 29%.
Molecule `CCCC[C@H]1O[C@@H]2O[C@]3(C)CC[C@H]4[C@H](C)CC[C@@H]([C@H]1C)[C@@]24OO3` had an inhibition of 63%.
`C[C@@H]1CC[C@H]2[C@@H](C)CO[C@@H]3O[C@]4(C)CC[C@@H]1[C@]32OO4`: the inhibition was determined as 29%.
The molecule `C[C@H]1[C@@H](CCNC(=O)CC[C@H]2O[C@@H]3O[C@]4(C)CC[C@H]5[C@H](C)CC[C@@H]([C@H]2C)[C@@]35OO4)O[C@@H]2O[C@]3(C)CC[C@H]4[C@H](C)CC[C@@H]1[C@@]24OO3` returned an inhibition of 43%.
With `CCO[C@H]1O[C@@H]2O[C@@]3(C)CC[C@H]4[C@H](C)CC[C@@H]([C@H]1C)[C@@]24OO3`, the inhibition is 29%.
Take `CCS[C@H]1O[C@@H]2O[C@]3(C)CC[C@H]4[C@H](C)CC[C@@H]([C@H]1C)[C@@]24OO3`: the inhibition came out at 17%.
Consider `C[C@H]1[C@@H](CCN)O[C@@H]2O[C@]3(C)CC[C@H]4[C@H](C)CC[C@@H]1[C@@]24OO3`, for which the inhibition is 29%.
`C[C@H]1[C@@H](CCO)O[C@@H]2O[C@]3(C)CC[C@H]4[C@H](C)CC[C@@H]1[C@@]24OO3` yielded an inhibition of 63%.

The term inhibition denotes the relative decrease from the control value, in per cent. Read a low inhibition as little suppression.

Source of the values: ChEMBL document CHEMBL1139654, “Antiangiogenic activity of deoxoartemisinin derivatives on chorioallantoic membrane” (Bioorg Med Chem Lett, 2006).
